Assay results as given in ChEMBL document CHEMBL4715723, “Discovery and development of benzo-[1,2,4]-triazolo-[1,4]-oxazepine GPR142 agonists for the treatment of diabetes” (Bioorg Med Chem Lett, 2016).
pEC50, pIC50: −log10 of the molar value. Each block holds one molecule with its values, some of them ahead of it. Activity calls are given as the source filed them. No cut-off for these calls is given here.

Key:
[1] = molecular target: T1, Probable G-protein coupled receptor 142 (Homo sapiens, UniProt Q7Z601); assay: Agonist activity at human GPR142 expressed in CHO cells measured for 3 mins by Fluo-4M dye based FLIPR assay; format: cell-based; settings: read-out: IC50 (the source's name)
T1 sequence (Q7Z601 whole entry): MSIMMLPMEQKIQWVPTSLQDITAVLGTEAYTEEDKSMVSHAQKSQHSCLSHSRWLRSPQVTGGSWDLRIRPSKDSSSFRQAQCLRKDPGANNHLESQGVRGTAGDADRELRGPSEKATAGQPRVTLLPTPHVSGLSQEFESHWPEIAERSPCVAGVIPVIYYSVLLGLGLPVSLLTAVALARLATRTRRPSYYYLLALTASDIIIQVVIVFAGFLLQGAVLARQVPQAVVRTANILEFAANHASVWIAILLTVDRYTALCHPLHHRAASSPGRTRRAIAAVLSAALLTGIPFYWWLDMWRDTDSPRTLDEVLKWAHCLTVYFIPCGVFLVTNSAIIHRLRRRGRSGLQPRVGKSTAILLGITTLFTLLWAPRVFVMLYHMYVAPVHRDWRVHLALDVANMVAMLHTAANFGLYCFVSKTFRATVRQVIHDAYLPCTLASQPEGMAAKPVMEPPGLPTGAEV

[2] = molecular target: T2, Probable G-protein coupled receptor 142 (Mus musculus, UniProt Q7TQN9); assay: Agonist activity at mouse GPR142 expressed in CHO cells measured for 3 mins by Fluo-4M dye based FLIPR assay; format: cell-based; settings: read-out: IC50 (the source's name)
T2 sequence (Q7TQN9 whole entry): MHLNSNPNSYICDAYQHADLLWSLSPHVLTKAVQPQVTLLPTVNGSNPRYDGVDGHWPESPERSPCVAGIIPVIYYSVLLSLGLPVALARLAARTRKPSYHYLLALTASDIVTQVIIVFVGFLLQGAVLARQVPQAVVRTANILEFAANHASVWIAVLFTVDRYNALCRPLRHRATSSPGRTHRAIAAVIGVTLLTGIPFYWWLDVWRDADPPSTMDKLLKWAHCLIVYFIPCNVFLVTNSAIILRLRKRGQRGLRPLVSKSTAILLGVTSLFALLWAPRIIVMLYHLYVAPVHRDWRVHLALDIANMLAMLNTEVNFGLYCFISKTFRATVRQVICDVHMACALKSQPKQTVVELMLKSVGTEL

Cytochrome P450 2D6 = Cytochrome P450 2D6 (Homo sapiens, UniProt P10635); assay: Inhibition of human liver microsomes CYP2D6 using dextromethorphan as substrate by MUX-MS/MS analysis; format: ADME, Microsome
Chain of Cytochrome P450 2D6 (P10635 whole entry): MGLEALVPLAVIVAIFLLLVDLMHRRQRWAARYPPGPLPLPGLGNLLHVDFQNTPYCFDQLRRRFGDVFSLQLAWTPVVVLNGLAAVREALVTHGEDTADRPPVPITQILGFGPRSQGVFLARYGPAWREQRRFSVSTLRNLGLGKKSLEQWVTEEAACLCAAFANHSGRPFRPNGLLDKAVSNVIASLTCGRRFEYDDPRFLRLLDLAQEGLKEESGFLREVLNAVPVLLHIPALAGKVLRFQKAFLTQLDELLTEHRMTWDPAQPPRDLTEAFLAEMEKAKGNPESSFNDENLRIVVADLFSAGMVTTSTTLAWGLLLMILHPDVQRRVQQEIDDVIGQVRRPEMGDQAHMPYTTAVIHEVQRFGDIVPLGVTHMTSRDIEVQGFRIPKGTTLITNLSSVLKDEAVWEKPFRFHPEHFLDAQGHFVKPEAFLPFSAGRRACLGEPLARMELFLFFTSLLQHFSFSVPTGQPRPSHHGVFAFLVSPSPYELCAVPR

Cytochrome P450 3A4 = Cytochrome P450 3A4 (Homo sapiens, UniProt P08684); assay: Inhibition of human liver microsomes CYP3A4 using testosterone as substrate by MUX-MS/MS analysis; format: ADME, Microsome
Chain of Cytochrome P450 3A4 (P08684 whole entry): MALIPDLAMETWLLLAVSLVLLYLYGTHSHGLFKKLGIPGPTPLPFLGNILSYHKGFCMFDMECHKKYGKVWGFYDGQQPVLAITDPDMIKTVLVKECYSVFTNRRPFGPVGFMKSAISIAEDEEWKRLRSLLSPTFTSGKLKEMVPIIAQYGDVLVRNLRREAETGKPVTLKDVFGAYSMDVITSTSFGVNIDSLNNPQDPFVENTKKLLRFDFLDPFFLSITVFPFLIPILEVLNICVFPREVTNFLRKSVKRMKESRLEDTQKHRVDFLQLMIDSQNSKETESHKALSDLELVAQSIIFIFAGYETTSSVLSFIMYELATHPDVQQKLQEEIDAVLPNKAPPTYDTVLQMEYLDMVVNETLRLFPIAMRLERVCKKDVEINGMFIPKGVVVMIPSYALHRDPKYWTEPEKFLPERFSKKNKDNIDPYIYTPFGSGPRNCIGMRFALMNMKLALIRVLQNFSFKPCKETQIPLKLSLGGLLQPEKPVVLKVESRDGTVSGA

Cytochrome P450 2C9 = Cytochrome P450 2C9 (Homo sapiens, UniProt P11712); assay: Inhibition of human liver microsomes CYP2C9 using diclofenac as substrate by MUX-MS/MS analysis; format: ADME, Microsome
Chain of Cytochrome P450 2C9 (P11712 whole entry): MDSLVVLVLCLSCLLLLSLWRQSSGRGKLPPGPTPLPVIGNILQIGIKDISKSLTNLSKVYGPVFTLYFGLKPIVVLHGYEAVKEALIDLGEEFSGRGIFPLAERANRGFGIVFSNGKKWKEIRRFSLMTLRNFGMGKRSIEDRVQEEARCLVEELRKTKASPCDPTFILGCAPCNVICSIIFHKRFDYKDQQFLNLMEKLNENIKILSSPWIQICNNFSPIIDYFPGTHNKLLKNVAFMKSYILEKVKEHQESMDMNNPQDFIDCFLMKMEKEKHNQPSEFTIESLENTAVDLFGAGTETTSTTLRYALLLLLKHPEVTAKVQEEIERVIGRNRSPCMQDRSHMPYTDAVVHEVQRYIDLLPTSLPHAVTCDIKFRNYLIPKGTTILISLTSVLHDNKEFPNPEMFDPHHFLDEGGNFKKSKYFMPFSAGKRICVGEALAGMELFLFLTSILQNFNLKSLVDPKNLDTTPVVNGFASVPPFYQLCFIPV

[3] = molecular target: Voltage-gated inwardly rectifying potassium channel KCNH2 (Homo sapiens, UniProt Q12809); assay: Inhibition of human ERG expressed in HEK293 cells assessed as reduction in S35-MK-0499 binding; format: cell-based
Chain of Voltage-gated inwardly rectifying potassium channel KCNH2 (Q12809 whole entry): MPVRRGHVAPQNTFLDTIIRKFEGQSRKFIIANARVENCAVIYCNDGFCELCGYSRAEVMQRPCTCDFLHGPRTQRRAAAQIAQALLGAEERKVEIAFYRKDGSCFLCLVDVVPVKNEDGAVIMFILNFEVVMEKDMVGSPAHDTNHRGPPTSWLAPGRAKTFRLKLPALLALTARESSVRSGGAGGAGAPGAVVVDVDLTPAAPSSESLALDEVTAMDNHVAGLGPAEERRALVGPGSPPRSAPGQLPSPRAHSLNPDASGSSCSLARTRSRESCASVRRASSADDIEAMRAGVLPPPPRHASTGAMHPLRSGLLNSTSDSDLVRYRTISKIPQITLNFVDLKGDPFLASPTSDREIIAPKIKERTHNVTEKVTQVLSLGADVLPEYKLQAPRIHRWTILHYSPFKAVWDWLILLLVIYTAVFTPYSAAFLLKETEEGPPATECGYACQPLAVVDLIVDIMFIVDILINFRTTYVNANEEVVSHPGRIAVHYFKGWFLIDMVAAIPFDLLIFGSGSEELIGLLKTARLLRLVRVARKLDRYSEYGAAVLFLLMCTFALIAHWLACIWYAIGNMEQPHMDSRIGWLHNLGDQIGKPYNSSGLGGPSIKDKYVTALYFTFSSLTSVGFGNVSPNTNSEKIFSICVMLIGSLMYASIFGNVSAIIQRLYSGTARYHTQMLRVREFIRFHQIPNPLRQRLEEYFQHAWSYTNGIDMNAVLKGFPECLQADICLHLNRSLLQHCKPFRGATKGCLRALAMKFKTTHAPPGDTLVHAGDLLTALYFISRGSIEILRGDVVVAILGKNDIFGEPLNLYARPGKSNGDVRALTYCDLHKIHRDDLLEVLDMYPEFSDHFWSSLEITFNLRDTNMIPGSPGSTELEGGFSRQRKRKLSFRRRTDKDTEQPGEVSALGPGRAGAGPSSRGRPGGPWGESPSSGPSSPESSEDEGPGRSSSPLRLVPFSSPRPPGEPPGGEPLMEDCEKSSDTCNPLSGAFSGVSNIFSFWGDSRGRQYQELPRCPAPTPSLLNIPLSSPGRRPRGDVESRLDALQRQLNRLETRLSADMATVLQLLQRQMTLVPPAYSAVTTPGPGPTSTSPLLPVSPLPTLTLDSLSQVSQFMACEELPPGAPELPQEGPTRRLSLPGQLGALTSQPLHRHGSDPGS

[4] = Volume of distribution at steady state in rat at 2 mg/kg, po or 1 mg/kg, iv; format: ADME, organism-based; settings: in vivo, read-out: Vdss
[5] = Half life in rat at 2 mg/kg, po or 1 mg/kg, iv; format: ADME, organism-based; settings: in vivo
[6] = Protein binding in rat plasma assessed as unbound fraction; format: ADME, cell-free
[7] = Clearance in rat at 2 mg/kg, po or 1 mg/kg, iv; format: ADME, organism-based; settings: in vivo
[8] = Oral bioavailability in rat at 2 mg/kg; format: ADME, organism-based; settings: in vivo
Mus musculus [9] = assay: Antidiabetic activity in […] mouse assessed as reduction in dextrose-induced blood glucose peak administered po before dextrose stimulation and measured upto 120 mins after dextrose administration by OGTT assay; format: functional, organism-based; settings: time min <=120
Mus musculus [10] = assay: Antidiabetic activity in […] mouse harboring GPR142 deficient assessed as reduction in dextrose-induced blood glucose peak at 30 mg/kg, po administered before dextrose stimulation and measured upto 120 mins after dextrose administration by OGTT assay; format: functional, organism-based; settings: time min <=120

SMILES: O=S(=O)(Cc1cccc(C(F)(F)F)c1)N1CCOc2ccc(-c3ccncc3)cc2C1
pEC50 [1]: 5.64
pEC50 [2]: 6.80

SMILES: Cc1cc(-c2ccc3c(c2)-c2nnc(Nc4cccc(C(F)(F)F)c4)n2CCO3)ccn1
pIC50 (Cytochrome P450 2D6): 6.49
pEC50 [1]: 7.20
pIC50 (Cytochrome P450 3A4): 4.32
pIC50 (Cytochrome P450 2C9): 5.71
pIC50 [3]: 6.41

SMILES: CCc1cc(-c2ccc3c(c2)-c2nnc(Nc4cccc(C(F)(F)F)c4)n2CCO3)ccn1
pIC50 (Cytochrome P450 2D6): 5.63
pEC50 [1]: 7.13
Vd [4]: 2.6 L/kg
half-life [5]: 84 min
pIC50 (Cytochrome P450 3A4): < 4.30
pIC50 (Cytochrome P450 2C9): 5.45
fraction unbound [6]: 0.0034
clearance [7]: 14 mL/min/kg
pIC50 [3]: 6.48
bioavailability [8]: 97%

SMILES: FC(F)(F)Oc1cccc(Nc2nnc3n2CCOc2ccc(-c4ccncc4)cc2-3)c1
pIC50 (Cytochrome P450 2D6): 6.10
pEC50 [1]: 7.20
Vd [4]: 2.2 L/kg
Activity (Mus musculus [9]): Dose-dependent effect
half-life [5]: 60 min
pIC50 (Cytochrome P450 3A4): 5.79
pIC50 (Cytochrome P450 2C9): 6.03
fraction unbound [6]: 0.0041
Activity (Mus musculus [10]): inactive
clearance [7]: 23.9 mL/min/kg
pIC50 [3]: 6.22
bioavailability [8]: 40%

SMILES: Cc1cc(-c2ccc3c(c2)-c2nnc(Cc4cccc(Cl)c4)n2CCO3)ccn1
pIC50 (Cytochrome P450 2D6): 6.00
pEC50 [1]: 6.23
pIC50 (Cytochrome P450 3A4): 5.97
pIC50 (Cytochrome P450 2C9): 5.84
pIC50 [3]: 5.41

SMILES: Cc1cc(-c2ccc3c(c2)-c2nnc(Oc4cccc(Cl)c4F)n2CCO3)ccn1
pIC50 (Cytochrome P450 2D6): 4.92
pEC50 [1]: 7.25
Vd [4]: 1.6 L/kg
Activity (Mus musculus [9]): Dose-dependent effect
half-life [5]: 120 min
pIC50 (Cytochrome P450 3A4): 5.08
pIC50 (Cytochrome P450 2C9): 5.28
fraction unbound [6]: 0.0111
clearance [7]: 8.9 mL/min/kg
pIC50 [3]: 5.62
bioavailability [8]: 67%

SMILES: FC(F)(F)c1cccc(Nc2nnc3n2CCOc2ccc(-c4ccncc4)cc2-3)c1
pIC50 (Cytochrome P450 2D6): 6.11
pEC50 [1]: 7.32
pIC50 (Cytochrome P450 3A4): 6.29
pIC50 (Cytochrome P450 2C9): 6.27
pIC50 [3]: 6.25

SMILES: O=C(Nc1ccccc1F)N1CCOc2ccc(-c3ccncc3)cc2C1
pEC50 [1]: 4.88
pEC50 [2]: 6.22

SMILES: O=C(Nc1ccc(Cl)c(Cl)c1)N1Cc2ccc(-c3ccncc3)cc2C1
pEC50 [1]: < 4.70
pEC50 [2]: < 4.70

SMILES: O=C(Cc1cccc(C(F)(F)F)c1)N1CCOc2ccc(-c3ccncc3)cc2C1
pEC50 [1]: 5.79
pEC50 [2]: 6.21

Further lines, with some results ahead:

pEC50 [1]: 6.46
pEC50 [2]: 7.21
SMILES: O=C(Nc1cccc(-c2ccccc2)c1)N1CCOc2ccc(-c3ccncc3)cc2C1

pEC50 [1]: 6.80
pEC50 [2]: 6.96
SMILES: O=C(Nc1cccc(C(F)(F)F)c1)N1CCOc2ccc(-c3ccncc3)cc2C1

pEC50 [1]: 5.80
SMILES: COc1cccc(NC(=O)N2CCOc3ccc(-c4ccncn4)cc3C2)c1

pEC50 [1]: 6.79
pEC50 [2]: 7.23
SMILES: O=C(Nc1cccc(Cl)c1F)N1CCOc2ccc(-c3ccncc3)cc2C1

pEC50 [1]: 6.02
pEC50 [2]: 6.67
SMILES: COc1cccc(NC(=O)N2CCOc3ccc(-c4ccnc5ccccc45)cc3C2)c1

pEC50 [1]: 6.88
pEC50 [2]: 6.21
SMILES: O=C(Nc1ccc(F)c(Cl)c1)N1CCOc2ccc(-c3ccncc3)cc2C1

pEC50 [1]: 7.10
pEC50 [2]: 7.10
SMILES: N#Cc1cccc(NC(=O)N2CCOc3ccc(-c4ccncc4)cc3C2)c1

pIC50 (Cytochrome P450 2D6): 4.12
pEC50 [1]: 6.85
Vd [4]: 3.4 L/kg
pEC50 [2]: 6.86
half-life [5]: 42.6 min
fraction unbound [6]: 0.0015
clearance [7]: 88.6 mL/min/kg
bioavailability [8]: 6%
SMILES: O=C(Nc1ccc(Cl)c(Cl)c1)N1CCOc2ccc(-c3ccncc3)cc2C1
pIC50 ([3]; hek293): 5.69

pEC50 [1]: 6.40
pEC50 [2]: 5.93
SMILES: COc1cccc(NC(=O)N2CCOc3ccc(-c4ccncc4C)cc3C2)c1

pEC50 [1]: 5.76
pEC50 [2]: 6.84
SMILES: O=C(Nc1cccc(Oc2ccccc2)c1)N1CCOc2ccc(-c3ccncc3)cc2C1

pEC50 [1]: 6.73
pEC50 [2]: 6.31
SMILES: COc1cccc(NC(=O)N2CCOc3ccc(-c4ccncc4OC)cc3C2)c1

pEC50 [1]: 6.97
Vd [4]: 2 L/kg
pEC50 [2]: 6.79
half-life [5]: 39.6 min
fraction unbound [6]: 0.0086
clearance [7]: 56.1 mL/min/kg
bioavailability [8]: 1%
SMILES: O=C(Nc1cccc(Cl)c1)N1CCOc2ccc(-c3ccncc3)cc2C1

pEC50 [1]: 6.60
pEC50 [2]: 6.52
SMILES: COc1cccc(NC(=O)N2CCOc3ccc(-c4ccncc4)cc3C2)c1

pEC50 [1]: < 4.70
pEC50 [2]: < 4.70
SMILES: COc1cccc(N(C)C(=O)N2CCOc3ccc(-c4ccncc4)cc3C2)c1
